Bounds are passed on as bounds.

One assay concerns genotype 1/2 chimeric cell culture derived HCV (HCVcc). As to the kind of experiment: Genotype 1/2 chimeric HCVcc assay (nano-luciferase, HCV replication). In kind it is cell-based. The settings on record: Hepatitis C virus. Summed up:
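EC50 (replication, nano-luciferase) and CC50 (viability, cellular ATP) were determined by non-linear regression 72 h after infection with a reporter HCVcc chimera carrying genotype 1a structural and 2a JFH-1 non-structural proteins. Compound was applied to Huh-7.5 cells 2 h before inoculation.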
As for `O=C(NCCCN1CCC(N2CCCCC2)CC1)c1ccc(-c2cccc(CN3CCOCC3)c2)cc1` [Compound 1143], the EC50 was in the range of 1000 to 10000 nM.

In the case of `O=C(NCCCN1CCC(N2CCCCC2)CC1)c1cc2ccccc2s1` [Compound 1009], the concentration giving a half-maximal response (EC50) was 1000 to 10000 nM.

`O=C(NCCCN1CCC(N2CCCCC2)CC1)c1ccc(Cc2ccccc2)cc1` [Compound 1012] had a concentration for a half-maximal effect (EC50) of 100 to 1000 nM.

`O=C(NC/C=C/CN1CCC(N2CCCCC2)CC1)c1ccc(Oc2ccccc2)cc1` [Compound 1076] gave an EC50 of 100 to 1000 nM.

Molecule `O=C(NCCCN1CCC(Nc2ccccc2)CC1)c1ccc(Oc2ccccc2)cc1` [Compound 1058] displayed a concentration giving a half-maximal response (EC50) of 1000 to 10000 nM.

The molecule `O=C(NCCCN1CCCC1)c1ccc(C2CCCCC2)cc1` [Compound 1006] registered a 50% effective concentration (EC50) of 1000 to 10000 nM.

Take `O=C(NCCCN1CCC(N2CCCCC2)CC1)c1ccccc1-c1ccccc1` [Compound 1011]: the concentration giving a half-maximal response (EC50) is over 10000 nM.

With `O=C(Nc1cccc(CN2CCC(N3CCCCC3)CC2)c1)c1ccc(Oc2ccccc2)cc1` [Compound 1075], the EC50 lay within 100 to 1000 nM.

In the case of `O=C(NCCCN1CCC(N2CCCCC2)CC1)c1ccc(-c2ccc(C(F)(F)F)s2)cc1` [Compound 1137], the EC50 is 100 to 1000 nM.

`CN(C)c1ccc(-c2ccc(C(=O)NCCCN3CCC(N4CCCCC4)CC3)cc2)cc1` [Compound 1125] registered a concentration giving a half-maximal response (EC50) of 100 to 1000 nM.

Molecule `CN(C)C1CCN(CCCNC(=O)c2ccc(Oc3ccccc3)cc2)CC1` [Compound 1068] yielded an EC50 of 100 to 1000 nM.

Turning to `O=S(=O)(NCCCN1CCC(N2CCCCC2)CC1)c1ccc(-c2ccc(Cl)cc2)cc1` [Compound 1099], the EC50 lay in the range of 100 to 1000 nM.

`O=C(NCCC(=O)N1CCC(N2CCCCC2)CC1)c1ccc(Oc2ccccc2)cc1` [Compound 1053] gave an EC50 of 1000 to 10000 nM.

The molecule `O=C(NCCCN1CCC(N2CCCCC2)CC1)c1ccc(-c2ccc(Cl)cc2C(F)(F)F)cc1` [Compound 1136] showed a half-maximal effective concentration (EC50) of 100 to 1000 nM.

Molecule `CN1CCN(C(=O)c2ccc(-c3ccc(C(=O)NCCCN4CCC(N5CCCCC5)CC4)cc3)cc2)CC1` [Compound 1151] yielded a half-maximal effective concentration (EC50) of over 10000 nM.

`O=C(CCCN1CCC(N2CCCCC2)CC1)Nc1ccc(-c2ccc(C(F)(F)F)cc2)c(F)c1` [Compound 1113]: the 50% effective concentration (EC50) fell in the range of 100 to 1000 nM.

Still in this assay, the particulars now being: Hepatitis C virus, Huh7.5, 72 h.
`CCOC(=O)c1sc2c(c1NC(=O)NCc1c(-n3cccc3)sc3c1CCN(CC)C3)CCCC2` [Compound 109] yielded an EC50 of 1000 to 10000 nM.

On to `CC(C)(C)OC(=O)c1c(NC(=O)NCc2c(-c3ccc4cc[nH]c4c3)sc3c2CCNC3)sc2c1CCCC2` [Compound 201], for which the half-maximal effective concentration (EC50) was 1000 to 10000 nM.

For `CCOC(=O)c1c(NC(=O)NCc2c(-n3cccc3)sc3c2CCN(C)C3)sc2c1C(C)CCC2` (centres unmarked) [Compound 152], the EC50 was under 100 nM.

In the case of `CCOC(=O)c1c(NC(=O)NCc2c(C(F)(F)F)sc3c2CCNC3)sc(C)c1C` [Compound 132], the EC50 is under 100 nM.

The molecule `CCOC(=O)c1c(NC(=O)NCc2c(Br)sc3c2CCNC3)sc2c1CCOC2` [Compound 163] came in with an EC50 of under 100 nM.

For `O=C(NCc1c(C(F)(F)F)sc2c1CCNC2)Nc1sc2c(c1C(=O)OC1CCCC1)CCCC2` [Compound 235], the half-maximal effective concentration (EC50) is under 100 nM.

The molecule `CC1Cc2c(sc(NC(=O)NCc3c(Br)sc4c3CCNC4)c2C(=O)OC(C)(C)C)C(C)C1` (centres unmarked) [Compound 267] displayed a 50% effective concentration (EC50) of under 100 nM.

Molecule `CCOC(=O)c1c(NC(=O)NCc2c(-n3cccc3)sc3c2CCN(C)C3)sc2c1CCC(C)C2` (centres unmarked) [Compound 154] came in with an EC50 of under 100 nM.

Regarding `C=CCN1CCc2c(sc(-n3cccc3)c2CNC(=O)Nc2sc3c(c2C(=O)OC(C)(C)C)CCCC3)C1` [Compound 324], the EC50 was under 100 nM.

`CCN1CCc2c(sc(-n3cccc3)c2CNC(=O)Nc2sc3c(c2C#N)CCCC3)C1` [Compound 5] came in with an EC50 of over 10000 nM.

`Cc1nnc(-c2c(NC(=O)NCc3c(-n4cccc4)sc4c3CCN(C)C4)sc(C)c2C)o1` [Compound 74] registered an EC50 of under 100 nM.

In the case of `CCN1CCc2c(sc(-n3cccc3)c2CNC(=O)Nc2sc3c(c2C(=O)NCCCCNC(=O)CCCCCNC(=O)OC(C)(C)C)CCCC3)C1` [Compound 92], the EC50 was 1000 to 10000 nM.

`Cc1cncc(-c2sc3c(c2CNC(=O)Nc2sc4c(c2C(=O)OC(C)(C)C)CCCC4)CCNC3)c1` [Compound 322] yielded a concentration for a half-maximal effect (EC50) of 100 to 1000 nM.

Consider `CCN1CCc2c(sc(-n3cccc3)c2CNC(=O)Nc2sc3c(c2C(=O)OC(C)(C)C)CCCCC3)C1` [Compound 115], for which the concentration for a half-maximal effect (EC50) is under 100 nM.

`CCN1CCc2c(sc(-n3cccc3)c2CNC(=O)Nc2sc3c(c2C(=O)OC2CCCC2)CCCC3)C1` [Compound 222] displayed an EC50 of under 100 nM.

`COC(=O)c1c(NC(=O)NCc2c(-n3cccc3)sc3c2CCNC3)sc2c1CCCC2` [Compound 142] had an EC50 of 100 to 1000 nM.

The molecule `CC(C)(C)OC(=O)c1c(NC(=O)NCc2c(C(F)(F)F)sc3c2CCN(CCO)C3)sc2c1CCCC2` [Compound 373] showed an EC50 of under 100 nM.

On to `COC(=O)c1c(NC(=O)NCc2c(C(F)(F)F)sc3c2CC[N+](C)(C)C3)sc2c1CCCC2` [Compound 223], for which the EC50 lay in the range of 1000 to 10000 nM.

In turn, `CCc1sc2c(c1CNC(=O)Nc1sc3c(c1C(=O)OC(C)(C)C)CCC3)CCNC2` [Compound 314] yielded a half-maximal effective concentration (EC50) of under 100 nM.

For the molecule `CCOC(=O)c1c(NC(=O)NCc2c(C(F)(F)F)sc3c2CCNC3)sc2c1CCC(C)C2` (centres unmarked) [Compound 166], the concentration giving a half-maximal response (EC50) was under 100 nM.

With `C=CCCOC(=O)c1c(NC(=O)NCc2c(-n3cccc3)sc3c2CCNC3)sc2c1CCCC2` [Compound 276], the EC50 is under 100 nM.

As to `CCOC(=O)c1c(NC(=O)NCc2c(Br)sc3c2CCNC3)sc2c1CC(C)CC2` (centres unmarked) [Compound 193], the half-maximal effective concentration (EC50) is under 100 nM.

In the case of `CC(C)(C)OC(=O)c1c(NC(=O)NCc2c(-n3cccc3)sc3c2CCN(CC(F)(F)F)C3)sc2c1CCCC2` [Compound 240], the 50% effective concentration (EC50) is under 100 nM.

In the case of `CC(C)(C)OC(=O)c1c(NC(=O)NCc2c(Br)sc3c2CCNC3)sc2c1CCC2` [Compound 224], the EC50 was under 100 nM.

`CC(C)(C)OC(=O)c1c(NC(=O)NCc2c(-n3cccc3)sc3c2CCN(CCO)C3)sc2c1CCCC2` [Compound 258] displayed an EC50 of under 100 nM.

For the molecule `Cc1sc(NC(=O)NCc2c(-n3c(C)ccc3C)sc3c2CCNC3)c(C(=O)OC(C)(C)C)c1C` [Compound 352], the EC50 is 1000 to 10000 nM.

With `CC(C)OC(=O)c1c(NC(=O)NCc2c(Br)sc3c2CCNC3)sc2c1CCCC2` [Compound 140], the EC50 was under 100 nM.

In turn, `CCc1sc2c(c1CNC(=O)Nc1sc3c(c1C(=O)OC1CCCC1)CCCC3)CCNC2` [Compound 313] showed an EC50 of under 100 nM.

In the case of `CCOC(=O)c1c(NC(=O)NCc2c(Br)sc3c2CCN(C)C3)sc2c1CCCC2` [Compound 199], the EC50 is under 100 nM.

`O=C(NCc1c(-n2cccc2)sc2c1CCNC2)Nc1sc2c(c1C(=O)OC1CCCC1)CCCC2` [Compound 220] gave an EC50 of under 100 nM.

In the case of `CC(C)(C)OC(=O)c1c(NC(=O)NCc2c(-c3ccccc3)sc3c2CCNC3)sc2c1CCCC2` [Compound 130], the concentration for a half-maximal effect (EC50) was under 100 nM.

Molecule `CC(C)(C)OC(=O)c1c(NC(=O)NCc2c(-n3cccc3)sc3c2CCNC3)sc2c1CCCC2` [Compound 106] yielded a concentration for a half-maximal effect (EC50) of under 100 nM.

For `CCOC(=O)c1c(NC(=O)NCc2c(-n3cccc3)sc3c2CCN(CC(C)C)C3)sc2c1CCCC2` [Compound 27], the EC50 was under 100 nM.

The molecule `CC(C)(C)OC(=O)c1c(NC(=O)NCc2c(-c3cnc(Sc4ccccc4)nc3)sc3c2CCNC3)sc2c1CCCC2` [Compound 323] showed an EC50 of 100 to 1000 nM.

`CCOC(=O)c1c(NC(=O)NCc2c(-n3cccc3)sc3c2CCN(CC)C3)sc2c1CCNC2` [Compound 46] showed an EC50 of 100 to 1000 nM.

`O=C(NCc1c(-c2ccoc2)sc2c1CCNC2)Nc1sc2c(c1C(=O)OC1CCCC1)CCCC2` [Compound 344] registered a 50% effective concentration (EC50) of under 100 nM.

`CCOC(=O)c1c(NC(=O)NCc2c(-n3cccc3)sc(CN3CCOCC3)c2C)sc2c1CCCC2` [Compound 53] came in with a 50% effective concentration (EC50) of under 100 nM.

`CCOC(=O)c1c(NC(=O)NCc2c(-n3cccc3)sc3c2CCN(CC)C3)sc(C(=O)N(C)C)c1C` [Compound 58] came in with an EC50 of 1000 to 10000 nM.

`Cc1nnc(-c2c(NC(=O)NCc3c(-n4cccc4)sc4c3CCN(C)C4)sc3c2CCCC3)o1` [Compound 65] registered an EC50 of under 100 nM.

Consider `CCOC(=O)c1c(NC(=O)NCc2ccsc2)sc2c1CCCC2` [Compound 3], for which the EC50 was under 100 nM.

On to `Cc1sc(NC(=O)NCc2c(Br)sc3c2CCN(C)C3)c(C(=O)OC(C)C)c1C` [Compound 297], for which the concentration giving a half-maximal response (EC50) is under 100 nM.

Turning to `CCc1sc2c(c1CNC(=O)Nc1sc3c(c1C(=O)OC(C)(C)C)CCC(C)C3)CCNC2` (centres unmarked) [Compound 289], the concentration for a half-maximal effect (EC50) was under 100 nM.

In the case of `Cc1sc(NC(=O)NCc2c(C(F)(F)F)sc3c2CCN(C)C3)c(C(=O)OC(C)C)c1C` [Compound 295], the EC50 is under 100 nM.

With `CCN1CCc2c(sc(-n3cccc3)c2NC(=O)Nc2sc3c(c2C(=O)OC(C)(C)C)CCCC3)C1` [Compound 105], the concentration giving a half-maximal response (EC50) lay in the range of 1000 to 10000 nM.

In turn, `CCOC(=O)c1c(NC(=O)NCc2ccc(N(C)C)cc2)sc2c1CCCC2` [Compound 103] gave a concentration giving a half-maximal response (EC50) of under 100 nM.

For the molecule `CCOC(=O)c1c(NC(=O)NCc2c(-n3cccc3)sc3c2CCN(Cc2ccccc2)C3)sc(C)c1C` [Compound 28], the concentration giving a half-maximal response (EC50) was under 100 nM.

For `CCN1CCc2c(sc(-n3cccc3)c2CNC(=O)Nc2sc3c(c2C(=O)NCC(C)C)CCCC3)C1` [Compound 80], the half-maximal effective concentration (EC50) was under 100 nM.

On to `CCOC(=O)c1c(N(C)C(=O)NCc2c(-n3cccc3)sc3c2CCN(CC)C3)sc2c1CCCC2` [Compound 55], for which the half-maximal effective concentration (EC50) lay within 1000 to 10000 nM.

The molecule `CC(C)OC(=O)c1c(NC(=O)NCc2c(-c3ccccc3)sc3c2CCNC3)sc2c1CCCC2` [Compound 226] came in with an EC50 of under 100 nM.

As for `O=C(NCc1c(Br)sc2c1CCNC2)Nc1sc2c(c1C(=O)OC1CCCC1)CCCC2` [Compound 262], the EC50 is under 100 nM.

Take `COC(=O)c1c(NC(=O)NCc2c(Br)sc3c2CCN(C)C3)sc2c1CCCC2` [Compound 175]: the EC50 is under 100 nM.

Turning to `COCCN1CCc2c(sc(-n3cccc3)c2CNC(=O)Nc2sc3c(c2C(=O)OC(C)(C)C)CCCC3)C1` [Compound 259], the EC50 was under 100 nM.

By EC50 is commonly meant the concentration giving half of the maximal effect.

(Values after US9809602B2, “Compounds for treating viral infections” (INSTITUT PASTEUR KOREA, priority 2014, dated 2017).)
